According to patent US9924721B2 (priority 2013, dated 2018):
Marks after values point to notes of the source that are not given here.

Columns and labels:
[1] = pH 2.7
Pythium ultimum = Pythium ultimum in vitro cell test; type: cell-based; conditions: 4 days incubation
Experimental: Pythium ultimum In Vitro Cell Test
• Solvent: DMSO • Culture medium: 14.6 g anhydrous D-glucose (VWR), 7.1 g Mycological Peptone (Oxoid), 1.4 g granulated Yeast Extract (Merck), QSP liter • Inoculum: mycelial suspension
Fungicides were solubilized in DMSO and the solution used to prepare the required range of concentrations. The final concentration of DMSO used in the assay was ≤1%.
Inoculum was prepared from a pre-culture of P. ultimum grown in liquid medium by homogenization using a blender. The concentration of ground mycelium in the inoculum was estimated and adjusted to the desired optical density (OD).
Fungicides were evaluated for their ability to inhibit mycelium growth in liquid culture assay. The compounds were added in the desired concentrations to culture medium containing the mycelial suspension. After 4 days of incubation, the fungicidal efficacy of compounds was determined by spectrometric measurement of mycelium growth. Inhibition of fungal growth was determined by comparing the absorbance values in wells containing the fungicides with the absorbance in control wells without fungicides.

Phytophthora infestans [2] = assay: microbe, parasite or virus in culture; type: cell-based; conditions: for Eff. % (inhibition of fungal growth): 8 days incubation
physchem = conditions: pH 2.7
Phytophthora infestans [3] = type: in vivo; conditions: tomatoes, spray, 100 ppm of active ingredient; evaluated 3 days after inoculation
Plasmopara viticola = assay: Plasmopara test (grapevines)/preventive; type: in vivo; conditions: spray, 1 ppm of active ingredient, evaluated 6 days after inoculation
Experimental: Plasmopara Test (Grapevines)/Preventive
• Solvent: 24.5 parts by weight of acetone • 24.5 parts by weight of dimethylacetamide • Emulsifier: 1 part by weight of alkylaryl polyglycol ether
To produce a suitable preparation of active compound, 1 part by weight of active compound is mixed with the stated amounts of solvent and emulsifier, and the concentrate is diluted with water to the desired concentration.
To test for preventive activity, young plants are sprayed with the preparation of active compound at the stated rate of application. After the spray coating has dried on, the plants are inoculated with an aqueous spore suspension of Plasmopara viticola and then remain for 1 day in an incubation cabinet at approximately 20° C. and a relative atmospheric humidity of 100%. The plant is subsequently placed for 4 days in a greenhouse at approximately 21° C. and a relative atmospheric humidity of approximately 90%. The plants are then misted and placed for 1 day in an incubation cabinet.
The test is evaluated 6 days after the inoculation. 0% means an efficacy which corresponds to that of the untreated control, while an efficacy of 100% means that no disease is observed.

[4] = 0.25 μg/mL of active ingredient

SMILES | Log P [1] | Eff. % (inhibition of fungal growth) (Pythium ultimum; 20 μg/mL of active ingredient) | Eff. % (inhibition of fungal growth) (Phytophthora infestans [2]; 20 μg/mL of active ingredient) | chromatographic logP (physchem) | further results
CCCCCC(CC)OC(=O)CC(=O)N1CCC(c2nc(C3=NOC(c4ccccc4C=O)C3)cs2)CC1 (stereo not drawn) [Example I-55] | 4.27^[a] | 70% | 100% | – | –
C#CCOc1ccccc1C1CC(c2csc(C3CCN(C(=O)C(Br)C(=O)OCC)CC3)n2)=NO1 (stereo not drawn) [Example I-30, ethyl 2-bromo-3-oxo-3-[4-(4-{5-[2-(prop-2-yn-1-yloxy)phenyl]-4,5-dihydro-1,2-oxazol-3-yl}-1,3-thiazol-2-yl)piperidin-1-yl]propanoate] | – | – | – | 3.18 | –
CC(C)OC(=O)C(C(=O)N1CCC(c2nc(C3=NOC(c4ccccc4OS(C)(=O)=O)C3)cs2)CC1)n1nc(C(F)F)cc1C(F)F (stereo not drawn) [Example I-01] | 3.53^[a] | 95% | 100% | – | Eff. % (preventive efficacy) (Phytophthora infestans [3]): 70%
C#CCOc1ccccc1C1CC(c2csc(C3CCN(C(=O)C(C(=O)OC(C)C)n4nc(C(F)F)cc4C(F)F)CC3)n2)=NO1 (stereo not drawn) [Example I-09] | 3.93^[a] | 97% | 98% | – | –
COCCOC(=O)CC(=O)N1CCC(c2nc(C3=NOC(c4ccccc4OS(C)(=O)=O)C3)cs2)CC1 (stereo not drawn) [Example I-46] | 2.11^[a] | 97% | 100% | – | –
C#CCOc1ccccc1C1CC(c2csc(C3CCN(C(=O)C(C(=O)OC(C)(C)C)n4nc(C(F)F)cc4C(F)F)CC3)n2)=NO1 (stereo not drawn) [Example I-65] | 4.16^[a] | – | – | – | Eff. % (inhibition of fungal growth) (Pythium ultimum; of active ingredient): 91%; Eff. % (inhibition of fungal growth) (Phytophthora infestans [2]; [4]): 100%
CCOC(=O)C(C(=O)N1CCC(c2nc(C3=NOC(c4ccccc4OS(C)(=O)=O)C3)cs2)CC1)n1nc(C(F)F)cc1C(F)F (stereo not drawn) [Example I-11] | 3.28^[a] | 97% | 100% | – | –
C#CCOc1cccc(Cl)c1C1CC(c2csc(C3CCN(C(=O)CC(=O)OCC)CC3)n2)=NO1 (stereo not drawn) [Example I-51] | 2.81^[a] | 95% | 100% | – | Eff. % (preventive efficacy) (Plasmopara viticola): 94%
N#CC1CCN(C(=O)CC(=O)OCc2ccccc2)CC1 [IV-02, benzyl 3-(4-cyanopiperidin-1-yl)-3-oxopropanoate] | – | – | – | 1.85 | –
CCOC(=O)C(Br)C(=O)N1CCC(c2nc(C3=NOC(c4c(F)cccc4OS(C)(=O)=O)C3)cs2)CC1 (stereo not drawn) [Example I-27] | 2.72^[a] | 100% | 100% | – | –
CCOC(=O)C(C(=O)N1CCC(c2nc(C3=NOC(c4ccccc4OS(C)(=O)=O)C3)cs2)CC1)n1nc(C)nc1C (stereo not drawn) [Example I-20] | 2.24^[a] | 87% | 100% | – | –
C#CCOc1ccccc1C1CC(c2csc(C3CCN(C(=O)CC(=O)OC(C)C)CC3)n2)=NO1 (stereo not drawn) [Example I-52] | 2.94^[a] | 86% | 87% | – | –
C#CCOc1ccccc1C1CC(c2csc(C3CCN(C(=O)OC(C)(C)C)CC3)n2)=NO1 (stereo not drawn) [tert-butyl 4-(4-{5-[2-(prop-2-yn-1-yloxy)phenyl]-4,5-dihydro-1,2-oxazol-3-yl}-1,3-thiazol-2-yl)piperidine-1-carboxylate] | – | – | – | 4.07 | –
C#CCOc1cccc(F)c1C1CC(c2csc(C3CCN(C(=O)CC(=O)OC(C)C)CC3)n2)=NO1 (stereo not drawn) [Example I-44] | 2.85^[a] | 99% | 100% | – | Eff. % (preventive efficacy) (Plasmopara viticola): 82%
CCOC(=O)CC(=O)N1CCC(c2nc(C3=NOC(c4c(Cl)cccc4OS(C)(=O)=O)C3)cs2)CC1 (stereo not drawn) [Example I-49] | 2.53^[a] | 88% | 100% | – | –
C#CCOc1cccc(Cl)c1C1CC(c2csc(C3CCN(C(=O)C(C(=O)OC(C)(C)C)n4nc(C(F)F)cc4C(F)F)CC3)n2)=NO1 (stereo not drawn) [Example I-63] | 4.31^[a] | – | – | – | Eff. % (inhibition of fungal growth) (Pythium ultimum; of active ingredient): 90%; Eff. % (inhibition of fungal growth) (Phytophthora infestans [2]; [4]): 100%

SMILES | Log P [1] | Eff. % (inhibition of fungal growth) (Pythium ultimum; 20 μg/mL of active ingredient) | Eff. % (inhibition of fungal growth) (Phytophthora infestans [2]; 20 μg/mL of active ingredient) | chromatographic logP (physchem) | further results
N#CC1CCN(C(=O)C(C(=O)OCc2ccccc2)n2nc(C(F)F)cc2C(F)F)CC1 (stereo not drawn) [IV-04, benzyl 2-[3,5-bis(difluoromethyl)-1H-pyrazol-1-yl]-3-(4-cyanopiperidin-1-yl)-3-oxopropanoate] | – | – | – | 2.94 | –
CCOC(=O)CC(=O)N1CCC(c2nc(C3=NOC(c4ccccc4OS(C)(=O)=O)C3)cs2)CC1 (stereo not drawn) [Example I-50] | 2.30^[a] | 94% | 98% | – | –
C#CCOc1ccccc1C1CC(c2csc(C3CCNCC3)n2)=NO1 (stereo not drawn) [4-(4-{5-[2-(prop-2-yn-1-yloxy)phenyl]-4,5-dihydro-1,2-oxazol-3-yl}-1,3-thiazol-2-yl)piperidinium chloride] | – | – | – | 1.26 | –
C#CCOc1cccc(F)c1C1CC(c2csc(C3CCN(C(=O)C(C(=O)OCC)n4nc(C(F)F)cc4C(F)F)CC3)n2)=NO1 (stereo not drawn) [Example I-04] | 3.57^[a] | 92% | – | – | Eff. % (inhibition of fungal growth) (Phytophthora infestans [2]; [4]): 100%
CCOC(=O)C(C(=O)N1CCC(c2nc(C3=NOC(c4ccccc4OS(C)(=O)=O)C3)cs2)CC1)n1nc(C(F)(F)F)nc1C (stereo not drawn) [Example I-06] | 3.14^[a] | 94% | 100% | – | –
CS(=O)(=O)Oc1ccccc1C1CC(C(=O)CCl)=NO1 (stereo not drawn) [2-[3-(chloroacetyl)-4,5-dihydro-1,2-oxazol-5-yl]phenyl methanesulfonate] | – | – | – | 2.37 | –
C#CCOc1ccccc1C1CC(c2csc(C3CCN(C(=O)C(C(=O)OCC)n4nc(C(F)F)cc4C(F)F)CC3)n2)=NO1 (stereo not drawn) [Example I-15, ethyl 2-[3,5-bis(difluoromethyl)-1H-pyrazol-1-yl]-3-oxo-3-[4-(4-{5-[2-(prop-2-yn-1-yloxy)phenyl]-4,5-dihydro-1,2-oxazol-3-yl}-1,3-thiazol-2-yl)piperidin-1-yl]propanoate] | – | – | – | 3.69 | –
N#CC1CCN(C(=O)C(Br)C(=O)OCc2ccccc2)CC1 (stereo not drawn) [IV-03, benzyl 2-bromo-3-(4-cyanopiperidin-1-yl)-3-oxopropanoate] | – | – | – | 2.24 | –
CCOC(=O)C(Br)C(=O)N1CCC(c2nc(C3=NOC(c4c(Cl)cccc4OS(C)(=O)=O)C3)cs2)CC1 (stereo not drawn) [Example I-34] | 2.92^[a] | 94% | 100% | – | –
C#CCOc1cccc(F)c1C1CC(c2csc(C3CCN(C(=O)C(C(=O)OC(C)C)n4nc(C(F)F)cc4C(F)F)CC3)n2)=NO1 (stereo not drawn) [Example I-07] | 3.81^[a] | – | – | – | Eff. % (inhibition of fungal growth) (Pythium ultimum; of active ingredient): 97%; Eff. % (inhibition of fungal growth) (Phytophthora infestans [2]; [4]): 100%
CC(C)OC(=O)CC(=O)N1CCC(c2nc(C3=NOC(c4c(F)cccc4OS(C)(=O)=O)C3)cs2)CC1 (stereo not drawn) [Example I-47] | 2.53^[a] | 93% | 100% | – | –
NC(=S)C1CCN(C(=O)C(C(=O)OCc2ccccc2)n2nc(C(F)F)cc2C(F)F)CC1 (stereo not drawn) [II-01, benzyl 2-[3,5-bis(difluoromethyl)-1H-pyrazol-1-yl]-3-(4-carbamothioyl-piperidin-1-yl)-3-oxopropanoate] | – | – | – | 2.65 | –
CS(=O)(=O)Oc1ccccc1C1CC(c2csc(C3CCN(C(=O)C(C(=O)OCc4ccccc4)n4nc(C(F)F)cc4C(F)F)CC3)n2)=NO1 (stereo not drawn) [Example I-60, benzyl 2-[3,5-bis(difluoromethyl)-1H-pyrazol-1-yl]-3-{4-[4-(5-{2-[(methylsulfonyl)oxy]phenyl}-4,5-dihydro-1,2-oxazol-3-yl)-1,3-thiazol-2-yl]piperidin-1-yl}-3-oxopropanoate] | – | – | – | 3.77 | inhibition at 0.25 µg/mL (Phytophthora infestans [2]; Phytophthora infestans, 192 h, read-out: Eff. % (inhibition of fungal growth)): 100%
C#CCOc1cccc(F)c1C1CC(c2csc(C3CCN(C(=O)C(Br)C(=O)OC(C)C)CC3)n2)=NO1 (stereo not drawn) [Example I-38] | 3.30^[a] | – | – | – | Eff. % (preventive efficacy) (Plasmopara viticola): 93%; Eff. % (inhibition of fungal growth) (Pythium ultimum; of active ingredient): 99%; Eff. % (inhibition of fungal growth) (Phytophthora infestans [2]; [4]): 100%
C#CCOc1cccc(F)c1C1CC(c2csc(C3CCN(C(=O)C(Br)C(=O)OCC)CC3)n2)=NO1 (stereo not drawn) [Example I-26] | 2.98^[a] | 100% | 100% | – | –
